Test results as given in the COVID Moonshot data (paper PMC11187573), “Identification of SARS-CoV-2 Mpro inhibitors through deep reinforcement learning for de novo drug design and computational chemistry approaches” (RSC Medicinal Chemistry, 2024).

Legend:
[1] = molecular target: SARS-CoV-2 Main Protease (SARS-CoV-2) (UniProt P0DTD1)
[2] = molecular target: SARS-CoV-2 Main Protease (SARS-CoV-2) (UniProt P0DTD1); remark: listed apart in the source

SMILES: O=C1Nc2c(Br)cccc2C1=O
- relative solubility at 20 uM: 0.99
- relative solubility at 100 uM: 0.81
- inhibition ([1]; 20.0 µM): -4.89%
- inhibition ([1]; 50.0 µM): -4.45%
- IC50 [2]: 43.1 µM
- inhibition ([2]; 50.0 µM): 67.4%

SMILES: O=C(Cc1c[nH]c2ncccc12)N1CCC(N2CCCS2(=O)=O)CC1
- relative solubility at 20 uM: 1
- relative solubility at 100 uM: 1.01
- inhibition ([1]; 20.0 µM): 18.5%
- inhibition ([1]; 50.0 µM): -1.92%
- inhibition ([2]; 20.0 µM): 0%

SMILES: Nc1ncc(S(=O)(=O)NCc2cccc(Cl)c2)cn1
- relative solubility at 20 uM: 1
- relative solubility at 100 uM: 0.97
- inhibition ([1]; 20.0 µM): 5.4%
- inhibition ([1]; 50.0 µM): -6.16%
- inhibition ([2]; 50.0 µM): 6.76%

SMILES: Cc1nnc(NC(=O)Cc2cccc(Cl)c2)n1C
- relative solubility at 20 uM: 1
- relative solubility at 100 uM: 1
- inhibition ([1]; 20.0 µM): -6.05%
- inhibition ([1]; 50.0 µM): 0.874%
- inhibition ([2]; 50.0 µM): -14%

SMILES: Cc1ccncc1NC(=O)CN(C)S(=O)(=O)c1cccc2cccnc12
- relative solubility at 20 uM: 0.99
- relative solubility at 100 uM: 1
- inhibition ([1]; 20.0 µM): 43.4%
- inhibition ([1]; 50.0 µM): 17.3%
- inhibition ([2]; 20.0 µM): 0%
- inhibition ([2]; 50.0 µM): -0.449%

SMILES: O=C(Cc1cncnc1)Nc1cccc(CCCc2ccccc2)c1
- relative solubility at 20 uM: 0.96
- relative solubility at 100 uM: 0.94
- inhibition ([1]; 20.0 µM): 1.12%
- inhibition ([1]; 50.0 µM): 10.1%
- inhibition ([2]; 20.0 µM): 0%
- inhibition ([2]; 50.0 µM): 0%

SMILES: Cc1ccc(NC(=O)Nc2cccnc2)s1
- relative solubility at 20 uM: 1
- relative solubility at 100 uM: 0.96
- inhibition ([1]; 20.0 µM): 1.9%
- inhibition ([1]; 50.0 µM): 11.3%
- inhibition ([2]; 20.0 µM): 2.62%
- inhibition ([2]; 50.0 µM): 28.6%

SMILES: O=C(c1cc(=O)[nH]c2ccc(Cl)cc12)N1CCN(S(=O)(=O)c2ccccc2)CC1
- relative solubility at 20 uM: 0.94
- relative solubility at 100 uM: 0.93
- inhibition ([1]; 20.0 µM): 10.6%
- inhibition ([1]; 50.0 µM): 23.9%
- inhibition ([2]; 50.0 µM): 22.8%

SMILES: O=C(CCl)N1CCCC(N(CC2CCCCC2)C2CCC(O)CC2)C1 (centres undefined)
- relative solubility at 20 uM: 1
- relative solubility at 100 uM: 1
- inhibition ([1]; 20.0 µM): -11.8%
- inhibition ([1]; 50.0 µM): 7.36%
- inhibition ([2]; 50.0 µM): 24.9%

SMILES: C=CC(=O)N(c1ccc(C(C)(C)C)cc1)C(C(=O)NCCc1cccc(F)c1)c1cncc(Cl)c1 (centres undefined)
- relative solubility at 20 uM: 0.71
- relative solubility at 100 uM: 0.32
- inhibition ([1]; 20.0 µM): 24.2%
- inhibition ([1]; 50.0 µM): 57.9%
- IC50 [2]: 2.11 µM
- inhibition ([2]; 50.0 µM): 60.6%

SMILES: Cc1ccc(O)cc1NC(=O)C(C)(C)c1cccc(F)c1
- relative solubility at 20 uM: 1
- relative solubility at 100 uM: 0.92
- inhibition ([1]; 20.0 µM): 1.12%
- inhibition ([1]; 50.0 µM): -11%
- inhibition ([2]; 50.0 µM): -0.631%

SMILES: C=CC(=O)N(c1ccc(C(C)(C)C)cc1)C(C(=O)NC(C)(C)C)c1cncc(Br)c1C (centres undefined)
- relative solubility at 20 uM: 0.98
- relative solubility at 100 uM: 0.92
- inhibition ([1]; 20.0 µM): -4.32%
- inhibition ([1]; 50.0 µM): 7.84%
- inhibition ([2]; 20.0 µM): 12.9%
- inhibition ([2]; 50.0 µM): 35.3%

SMILES: N#Cc1ccc(Nc2ccc(NC(=O)Nc3cccnc3)cc2)nc1
- relative solubility at 20 uM: 1
- relative solubility at 100 uM: 0.91
- inhibition ([1]; 20.0 µM): -1.31%
- inhibition ([1]; 50.0 µM): -3.7%
- inhibition ([2]; 20.0 µM): 0%
- inhibition ([2]; 50.0 µM): 0%

SMILES: Cc1ccnc(C)c1NC(=O)C1CC2CC2C1 (centres undefined)
- relative solubility at 20 uM: 1
- relative solubility at 100 uM: 1
- inhibition ([1]; 20.0 µM): 10.2%
- inhibition ([1]; 50.0 µM): 15.6%
- inhibition ([2]; 50.0 µM): 0%

SMILES: Cc1ccncc1NC(=O)C(C)c1cccc(C#N)c1 (centres undefined)
- relative solubility at 20 uM: 1
- relative solubility at 100 uM: 1
- inhibition ([1]; 20.0 µM): 35.4%
- inhibition ([1]; 50.0 µM): 61.4%
- IC50 [2]: 45.3 µM
- inhibition ([2]; 20.0 µM): 21%
- inhibition ([2]; 50.0 µM): 58.4%

SMILES: Cc1ccncc1NC(=O)CCc1ccc(F)cc1
- relative solubility at 20 uM: 1
- relative solubility at 100 uM: 1
- inhibition ([1]; 20.0 µM): 1.95%
- inhibition ([1]; 50.0 µM): 5.92%
- inhibition ([2]; 50.0 µM): 6.51%

SMILES: Cc1cccc(CC2CCN(C(=O)CCl)CC2)c1
- relative solubility at 20 uM: 1
- relative solubility at 100 uM: 1
- inhibition ([1]; 20.0 µM): 62.9%
- inhibition ([1]; 50.0 µM): 90.5%
- IC50 [2]: 4.49 µM
- inhibition ([2]; 50.0 µM): 87.1%

SMILES: CN(C(=O)Cn1nnc2ccccc21)c1ccc(Oc2ccc(C(F)(F)F)cn2)cc1
- relative solubility at 20 uM: 0.98
- relative solubility at 100 uM: 0.87
- inhibition ([1]; 20.0 µM): 30.2%
- inhibition ([1]; 50.0 µM): 59.4%
- inhibition ([2]; 50.0 µM): 19.2%

SMILES: C[C@H](NC(=O)[C@@H](C)c1ccc(F)c(F)c1)c1cccc(F)c1 (stereo in doubt)
- relative solubility at 20 uM: 1
- relative solubility at 100 uM: 0.79
- inhibition ([1]; 50.0 µM): -31.4%
- inhibition ([2]; 20.0 µM): 0%
- inhibition ([2]; 50.0 µM): 0%

SMILES: N#Cc1ccc(S(=O)(=O)N2CCN(C(=O)c3cc(=O)[nH]c4cc(F)ccc34)CC2)cc1
- relative solubility at 20 uM: 0.94
- relative solubility at 100 uM: 0.94
- inhibition ([1]; 20.0 µM): 6.9%
- inhibition ([1]; 50.0 µM): 39.9%
- inhibition ([2]; 50.0 µM): 0.23%

SMILES: Cc1ccncc1NS(=O)(=O)Cc1cccc(Cl)c1
- relative solubility at 20 uM: 1
- relative solubility at 100 uM: 0.99
- inhibition ([1]; 20.0 µM): 4.3%
- inhibition ([1]; 50.0 µM): 9.77%
- inhibition ([2]; 50.0 µM): 19%

SMILES: Cc1[nH]c2ccccc2c1/C=N/N(C)C(=O)c1ccc2c(c1)OCO2
- relative solubility at 20 uM: 0.78
- relative solubility at 100 uM: 0.77
- inhibition ([1]; 20.0 µM): 2.2%
- inhibition ([1]; 50.0 µM): -13.4%
- inhibition ([2]; 50.0 µM): -6.66%

SMILES: N#Cc1ccc(NC(=O)Nc2cccnc2)cc1
- relative solubility at 20 uM: 1
- relative solubility at 100 uM: 1
- inhibition ([1]; 20.0 µM): 5.82%
- inhibition ([1]; 50.0 µM): 11.6%
- inhibition ([2]; 20.0 µM): 0%

SMILES: CS(=O)(=O)NCCCN1CCCc2ccc(S(N)(=O)=O)cc21
- relative solubility at 20 uM: 1
- relative solubility at 100 uM: 1
- inhibition ([1]; 50.0 µM): -23.8%
- inhibition ([2]; 20.0 µM): 0%
- inhibition ([2]; 50.0 µM): 0%

SMILES: CC1(C)Cc2cccc(OCCNC(=O)c3cc(=O)[nH]c4ccc(F)cc34)c2O1
- relative solubility at 20 uM: 0.98
- relative solubility at 100 uM: 0.84
- inhibition ([1]; 20.0 µM): 13.9%
- inhibition ([1]; 50.0 µM): 23.7%
- inhibition ([2]; 50.0 µM): 42%

SMILES: CC(NC(=O)C(Cc1ccccc1)NC(=O)c1ccco1)c1ncco1 (centres undefined)
- relative solubility at 20 uM: 1
- relative solubility at 100 uM: 1
- inhibition ([1]; 50.0 µM): -28%
- inhibition ([2]; 20.0 µM): 0%
- inhibition ([2]; 50.0 µM): 0%

SMILES: Nc1ncncc1CNC(=O)Nc1ccccc1OCCn1ccnc1
- relative solubility at 20 uM: 1
- relative solubility at 100 uM: 1
- inhibition ([1]; 50.0 µM): 15.8%
- inhibition ([2]; 20.0 µM): 1.47%
- inhibition ([2]; 50.0 µM): 9.19%

SMILES: O=C(N/N=C/c1c[nH]cn1)C1CCCCC1
- relative solubility at 20 uM: 1.01
- relative solubility at 100 uM: 1
- inhibition ([1]; 20.0 µM): -3.95%
- inhibition ([1]; 50.0 µM): 2.16%
- inhibition ([2]; 50.0 µM): -16.3%

SMILES: C=CC(=O)N(c1ccc(C(F)(F)F)cc1)C(C(=O)Nc1c(C)cccc1CC)c1cccnc1 (centres undefined)
- relative solubility at 20 uM: 0.89
- relative solubility at 100 uM: 0.79
- inhibition ([1]; 20.0 µM): 22.3%
- inhibition ([1]; 50.0 µM): 38.6%
- inhibition ([2]; 20.0 µM): 23.9%

SMILES: O=C(CCl)N1CCN(C(c2ccccc2)C2CCOCC2)CC1 (centres undefined)
- relative solubility at 20 uM: 1
- relative solubility at 100 uM: 0.99
- IC50 [1]: 20.7 µM
- inhibition ([1]; 20.0 µM): 80.8%
- inhibition ([1]; 50.0 µM): 103%
- IC50 [2]: 1.69 µM
- inhibition ([2]; 50.0 µM): 84.8%

SMILES: CC(=O)NCc1cccc(NC(=O)Cc2cncnc2)c1
- relative solubility at 20 uM: 1.01
- relative solubility at 100 uM: 1
- inhibition ([1]; 20.0 µM): 3.15%
- inhibition ([1]; 50.0 µM): 6.22%
- inhibition ([2]; 50.0 µM): 0%

SMILES: Cc1ccncc1NC(=O)CN1C(=O)COc2ccc(Cl)cc21
- relative solubility at 20 uM: 0.99
- relative solubility at 100 uM: 0.99
- inhibition ([1]; 20.0 µM): 32.8%
- inhibition ([1]; 50.0 µM): 49.3%
- IC50 [2]: 38.9 µM
- inhibition ([2]; 50.0 µM): 67.2%

SMILES: CCN1CCN(Cc2ccccc2CNC(=O)[C@@]2(C)CCN2C(=O)OC(C)(C)C)CC1 (stereo in doubt)
- relative solubility at 20 uM: 1
- relative solubility at 100 uM: 1
- inhibition ([1]; 20.0 µM): -6.3%
- inhibition ([1]; 50.0 µM): -0.697%
- inhibition ([2]; 50.0 µM): 13.2%

SMILES: O=C(c1cc2sccc2s1)N1CCOC(CN2CCOCC2)C1 (centres undefined)
- relative solubility at 20 uM: 1
- relative solubility at 100 uM: 0.99
- inhibition ([1]; 20.0 µM): 4.6%
- inhibition ([1]; 50.0 µM): 7.85%
- inhibition ([2]; 50.0 µM): 2.34%

SMILES: COc1ccccc1N1CCN(C(=O)c2cc(=O)[nH]c3ccccc23)CC1
- relative solubility at 20 uM: 1
- relative solubility at 100 uM: 0.99
- inhibition ([1]; 20.0 µM): 39%
- inhibition ([1]; 50.0 µM): 62.8%
- inhibition ([2]; 50.0 µM): 14.8%

SMILES: C=CC(=O)N(c1ccc2ncsc2c1)C(C(=O)Nc1cccc(CC)c1)c1cccnc1 (centres undefined)
- relative solubility at 20 uM: 0.8
- relative solubility at 100 uM: 0.63
- inhibition ([1]; 20.0 µM): 33.9%
- inhibition ([1]; 50.0 µM): 59.3%
- IC50 [2]: 32 µM
- inhibition ([2]; 20.0 µM): 16.6%

SMILES: Cc1ccnc(C)c1NC(=O)C(C)c1ccc(F)c(F)c1 (centres undefined)
- relative solubility at 20 uM: 1
- relative solubility at 100 uM: 1
- inhibition ([1]; 20.0 µM): -0.411%
- inhibition ([1]; 50.0 µM): -2.87%
- inhibition ([2]; 50.0 µM): 0%
